In publication PMC11604428, “UPLC-ESI/MS^n metabolic profiling of Cedrela odorata L. and Toona ciliata M. Roem and in vitro investigation of their anti-diabetic activity supported with molecular docking studies” (Frontiers in Chemistry, 2024):

Tests used:
C57BL/KsJ-db/db mice = test system: C57BL/KsJ-db/db mice; design: method as in Jung et al., 2006; details: ref Jung et al., 2006; cited from earlier work
[1] = test system: streptozotocin-induced diabetic mice; design: method as in Lee et al., 2010; Jang et al., 2009; Jang et al., 2010; details: streptozotocin-nicotinamide-induced, streptozotocin + high-fat diet and streptozotocin-induced diabetic mice, ref Lee et al., 2010, Jang et al., 2009; cited from earlier work
α-amylase [2] = experiment: α-Amylase inhibition assay; format: biochemical; details: mean ± SD, triplicate
Description: The α-amylase inhibitory activities of the tested Cedrela extracts were determined according to the standard published procedure with minor amendments ([Kazeem et al., 2013]). The enzyme solution was prepared by dissolving α-amylase in 20 mM phosphate buffer (pH = 6.9) at a concentration of 0.50 mg/mL. Then, 1 mL of different concentrations of the tested extract (0.01–100 μg/mL) was mixed with 1 mL of enzyme solution and allowed to sit at room temperature for 10 min. After incubation, 1 mL of 0.50% starch solution was included to the mixture and further incubated at room temperature for 10 min. The reaction was then ended by addition of 3,5-dinitrosalicylic acid (2 mL) and then heating the reaction mixture in a boiling water bath for 5 min. After cooling, the absorbance of the mixture was colorimetrically determined at 565 nm. Pioglitazone was used as a standard drug.
The assays were performed in triplicates, and the obtained values are stated as mean ± SD. For the in vitro investigation of α-amylase and α-glucosidase inhibitory properties, the IC50 was obtained from the graph plots of the dose–response curves at each oil concentration via Graph Pad Prism® software (San Diego, CA, United States).

α-amylase [3] = test system: α-amylase; design: method as in Shen et al., 2023; details: ref Shen et al., 2023; cited from earlier work
α-glucosidase = α-glucosidase (Saccharomyces cerevisiae, UniProt P53341); design: method as in Shen et al., 2023; details: ref Shen et al., 2023; cited from earlier work
α-glucosidase, sequence (P53341 whole entry): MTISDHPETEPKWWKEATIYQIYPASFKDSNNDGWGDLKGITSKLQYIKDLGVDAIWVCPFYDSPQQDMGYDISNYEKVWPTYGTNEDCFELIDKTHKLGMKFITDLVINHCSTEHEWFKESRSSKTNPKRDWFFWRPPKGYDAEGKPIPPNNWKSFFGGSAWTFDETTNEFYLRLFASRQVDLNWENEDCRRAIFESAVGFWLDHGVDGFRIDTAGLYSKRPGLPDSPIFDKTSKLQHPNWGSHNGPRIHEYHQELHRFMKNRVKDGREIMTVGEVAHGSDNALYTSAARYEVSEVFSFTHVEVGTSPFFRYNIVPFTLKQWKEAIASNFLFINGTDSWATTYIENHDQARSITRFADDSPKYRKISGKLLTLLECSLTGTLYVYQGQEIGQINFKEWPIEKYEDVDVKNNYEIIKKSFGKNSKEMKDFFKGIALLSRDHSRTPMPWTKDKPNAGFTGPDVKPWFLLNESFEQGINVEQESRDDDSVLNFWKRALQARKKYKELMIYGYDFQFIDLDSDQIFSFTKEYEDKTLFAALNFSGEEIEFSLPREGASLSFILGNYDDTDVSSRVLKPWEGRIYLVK

## O=C(O)/C=C/c1ccc(O)c(O)c1 [Caffeic acid]
C57BL/KsJ-db/db mice
  anti-hyperglycemic effect: anti-hyperglycemic properties

## C[C@H]1[C@H](C)CC[C@]2(C(=O)O)CC[C@]3(C)C(=CC[C@@H]4[C@@]5(C)CC[C@H](O)C(C)(C)[C@@H]5CC[C@]43C)[C@H]12 [Ursolic acid]
[1]
  effect on blood glucose levels: positive effect on reducing blood glucose levels

## CCc1ccc(CCOc2ccc(CC3SC(=O)NC3=O)cc2)nc1 (stereo not shown) [Pioglitazone]
α-amylase [2]; concentration 0.01 µg/mL
  α-Amylase inhibition (%): 12.50 ± 2.05%
α-amylase [2]; concentration 0.10 µg/mL
  α-Amylase inhibition (%): 27.70 ± 1.28%
α-amylase [2]; concentration 1.00 µg/mL
  α-Amylase inhibition (%): 45.40 ± 2.45%
α-amylase [2]; concentration 10.00 µg/mL
  α-Amylase inhibition (%): 80.60 ± 0.23%
α-amylase [2]; concentration 100.00 µg/mL
  α-Amylase inhibition (%): 91.70 ± 1.05%
α-amylase [2]
  α-Amylase inhibition IC50: 2.17 ± 0.23 µg/mL

## O=c1c(O)c(-c2ccc(O)c(O)c2)oc2cc(O)cc(O)c12 [quercetin]
α-amylase [3]
  inhibition of α-amylase activity: markedly inhibited
α-glucosidase
  inhibition of α-glucosidase activity: markedly inhibited
